What was measured:
Assay type in all cases: in vivo
[1] = system: C57BL/Ksj (BL/Ls) homozygous diabetic (db/db) mice; experiment: Changes in food intake, water intake and weight of db/db mice over 6 weeks; settings: 300 mg/kg, versus other groups
Excerpt: (§1) In order to examine the blood glucose lowering effects of the Ceriporia lacerata culture and exopolysaccharide, C57BL/Ksj (BL/Ls) homozygous diabetic (db/db) mice (SPF) as a typical type 2 diabetes animal model were used in this experiment. db/db mice are animals in which diabetes is caused by a point mutation in the leptin receptor gene Lepr of chromosome 4. In the animals, as the leptin receptor decreases, the signaling ability decreases, and thus the blood glucose level increases. The animals are recognized as an insulin-independent diabetes model and suitable for the evaluation and comparison of experimental results on the basis of raw data. For these reason, these db/db mice were selected in this experiment. The db/db mice used in this study were 6-week-old male mice weighing about 30-40 g, and these mice were produced in Japan SLC Inc. and obtained from Central Laboratory Animal (Korea). The mice were acclimated for about 7 days, and the weight and blood glucose level thereof were measured. 30 healthy animals suitable for experimentation and having no abnormal general conditions were selected. […] During the rearing period of 6 week, a change in the weight was measured once weekly. In order to examine a change in the blood glucose level, the tail vein blood glucose level was measured using ACCU-CHEK Sensor (Germany) once weekly after 12-hr fasting. […]

[2] = system: C57BL/Ksj (BL/Ls) homozygous diabetic (db/db) mice; experiment: Weekly tail vein blood glucose level after 12-hr fasting; settings: after 3 weeks (diabetes control about 400 mg/dL)
Excerpt: as §1

[3] = system: C57BL/Ksj (BL/Ls) homozygous diabetic (db/db) mice; experiment: Organ weight of db/db mice after 6-week oral administration; settings: 300 mg/kg orally every day, 6 weeks
Procedure: In the animals, as the leptin receptor decreases, the signaling ability decreases, and thus the blood glucose level increases. The animals are recognized as an insulin-independent diabetes model and suitable for the evaluation and comparison of experimental results on the basis of raw data. For these reason, these db/db mice were selected in this experiment. […] The mice were acclimated for about 7 days, and the weight and blood glucose level thereof were measured. 30 healthy animals suitable for experimentation and having no abnormal general conditions were selected. The experimental animals were divided according to a randomized block design into a negative control group, an exopolysaccharide low-dose group (150 mg/kg), an exopolysaccharide high-dose group (300 mg/kg) and a positive control group (metformin-300 mg/kg) such that the blood glucose level and weight are equal between the groups. These mice were reared for 6 weeks. In addition, normal and control groups, each consisting of 6 animals, were kept for 6 weeks under the same conditions. All test substances and positive control substances were orally administered at the same point of time every day, and the normal and negative control groups were orally administered with water (FIG. 11). During the rearing period of 6 week, a change in the weight was measured once weekly. In order to examine a change in the blood glucose level, the tail vein blood glucose level was measured using ACCU-CHEK Sensor (Germany) once weekly after 12-hr fasting. The experimental animals were fed with a commercially available animal solid feed (Samtaco Co. Ltd., Korea) and allowed access to water ad libitum. The animals were reared under the conditions of temperature of 23±3° C. and relative humidity of 50±10% with a 12-hr light/12-hr dark cycle (lighting: a.m. 8 to p.m. 8). For sacrifice of the experimental animals, all the animals were fasted for 12 hours and anesthetized with ether. Blood was taken from the saphenous vein and placed in a tube for serum separation. Then, the blood was centrifuged at 3,000 rpm for 20 minutes to obtain serum which was to be used as a sample for analysis of biochemical markers. Immediately after sacrifice, the liver, abdominal fat and the like were extracted from all the animals, weighed, fast-frozen at -80° C. and stored until use. Portions of the extracted liver and pancreas were fixed in 4% paraformaldehyde solution and subjected to histological analysis.

## CN(C)C(=N)N=C(N)N [MET, metformin]
[1]
  feed intake: significantly lower
  water intake: significantly lower
[2]
  blood glucose level after 12-hr fasting: no increase in the blood glucose level
[3]
  Abdominal fat (W/BW): 2.564 ± 0.33 W/BW
  Kidney (W/BW): 0.39 ± 0.03 W/BW
  Kidney fat (W/BW): 0.89 ± 0.13 W/BW
  Liver (W/BW): 2.60 ± 0.19 W/BW
  Spleen (W/BW): 0.03 ± 0.02 W/BW
